Data taken from PMC8729770, “In Vitro Evaluation of Antimicrobial Peptides from the Black Soldier Fly (Hermetia Illucens) against a Selection of Human Pathogens” (Microbiology Spectrum, 2022).
Where “and” joins values, the source holds several entries; their conditions need not be identical. Identical values can stand only once. Like-named read-outs stand apart in the source and are kept apart here. Ends that are not written are not given here. Peptide text beside a SMILES is read from it.

Assays:
P. aeruginosa ATCC 9027 = assay type: cell-based, Pseudomonas aeruginosa; conditions: for IC50: MHB, 37°C, resazurin; for IC50 / MIC P. aeruginosa ATCC 9027: 16 h; for MIC P. aeruginosa ATCC 9027: determined visually; for MBC P. aeruginosa ATCC 9027: plated on MHA, ≥3 log reduction vs growth control
Description: (§1) To detect antimicrobial activity of the BSF AMPs, the peptide library underwent screening against a panel of microorganisms, consisting of S. aureus ATCC 6538, E. coli ATCC 8739, P. aeruginosa ATCC 9027, C. albicans B59630, and A. fumigatus B42928. Serial dilutions of the peptides were prepared from the DMSO stock solutions in sterile demineralized water in 96-well plates using an automated liquid-handling workstation (Beckman Coulter Biomek 3000) in end volumes of 10 μL. The final in-plate concentration of DMSO was <1%. Peptide concentrations ranged from 64 μM to 0.25 μM for the first evaluation, and from 32 μM to 0.016 μM for the independent repeat. As references, doxycycline (Sigma-Aldrich; S. aureus, E. coli, P. aeruginosa), flucytosine (Sigma-Aldrich; C. albicans), and econazole (Sigma-Aldrich; A. fumigatus) were used. Suspensions of a starting inoculum of 5 × 10^3 CFU/mL (E. coli, S. aureus, C. albicans, A. fumigatus) and 5 × 10^4 CFU/mL (P. aeruginosa) were prepared in MHB (bacterial species) or RPMI medium (fungal species) and 190 μL was added to the 96-well plates. Plates were incubated for 16 h (E. coli, S. aureus, P. aeruginosa), 24 h (C. albicans), or 48 h (A. fumigatus) at 37°C. After incubation, read-out of the antimicrobial activity was performed using a resazurin assay. Then, 20 μL of a 0.01% (wt/vol) resazurin (Sigma-Aldrich) solution was added to each well and plates were incubated for 15 min (S. aureus), 30 min (E. coli), 45 min (P. aeruginosa), 4 h (C. albicans), or 17 h (A. fumigatus) to allow resazurin reduction to take place. Fluorescence was read using a microplate reader (Telix) at λexcitation = 550 nm and λemission = 590. […] MIC values were determined visually. Medium in the wells with no visual growth was plated on MHA to detect the MBC, defined as ≥3 log reduction compared with the growth control.

E. coli ATCC 8739 = assay type: cell-based, Escherichia coli; conditions: for IC50: MHB, 37°C, resazurin; for IC50 / MIC E. coli ATCC 8739: 16 h; for MIC E. coli ATCC 8739: determined visually
Description: as §1

A. fumigatus B42928 = assay type: cell-based, Aspergillus fumigatus; conditions: RPMI, 48 h, 37°C, resazurin
Description: as §1

[1] = test system: MRC5-SV2 cell line of human, embryonic lung fibroblasts; experiment: Cytotoxicity screening of the peptide library; assay type: cell-based; conditions: 72 h, 37°C, resazurin fluorescence
Description: (§2) To determine early signs of peptide toxicity, the library was tested against the MRC5-SV2 cell line of human, embryonic lung fibroblasts (Sigma-Aldrich). Peptides were serially diluted in 96-well plates as described earlier at concentrations ranging from 64 μM to 0.25 μM for the first screening, and from 32 μM to 0.016 μM for the independent repeat. Tamoxifen (Sigma-Aldrich) was included as a reference compound. After preparation of the test plates, cell suspension (190 μL) of 1.5 × 10^5 cells/mL in complete minimum essential medium (Gibco) was added to the peptides. Plates were incubated for 72 h at 37°C in a 5% CO2 incubator (Binder). Afterwards, 50 μL of a 0.01% (wt/vol) resazurin (Sigma-Aldrich) solution was added to the wells to detect cell viability.

C. albicans B59630 = assay type: cell-based, Candida albicans; conditions: RPMI, 24 h, 37°C, resazurin
Description: as §1

S. aureus ATCC 6538 = assay type: cell-based, Staphylococcus aureus; conditions: for IC50: MHB, 37°C, resazurin, 50% growth inhibition; for IC50 / MIC S. aureus ATCC 6538: 16 h; for MIC S. aureus ATCC 6538: determined visually; for MBC S. aureus ATCC 6538: wells without visual growth plated on MHA, ≥3 log reduction vs growth control
Description: as §1

[2] = Cytotoxicity screening of the peptide library; assay type: cell-based, human; conditions: human; both repeats; read-out: IC50 cell toxicity MRC5-SV2
Description: as §2

[3] = repeat 1, first screening 64-0.25 μM
[4] = repeat 2, independent repeat 32-0.016 μM

Compound | IC50 (P. aeruginosa ATCC 9027; repeat 1, 64-0.25 μM) [µM] | MIC P. aeruginosa ATCC 9027 (P. aeruginosa ATCC 9027; repeat 1, 64-0.25 μM) | IC50 (P. aeruginosa ATCC 9027; repeat 2, 32-0.016 μM) [µM] | MIC P. aeruginosa ATCC 9027 (P. aeruginosa ATCC 9027; repeat 2, 32-0.016 μM) | IC50 (E. coli ATCC 8739; repeat 1, 64-0.25 μM) [µM] | MIC E. coli ATCC 8739 (E. coli ATCC 8739; repeat 1, 64-0.25 μM) [µM] | IC50 (E. coli ATCC 8739; repeat 2, 32-0.016 μM) [µM] | MIC E. coli ATCC 8739 (E. coli ATCC 8739; repeat 2, 32-0.016 μM) | IC50 (A. fumigatus B42928; repeat 1, 64-0.25 μM) [µM] | IC50 (A. fumigatus B42928; repeat 2, 32-0.016 μM) [µM] | IC50 [1, 3] [µM] | IC50 [1, 4] [µM] | IC50 (C. albicans B59630; repeat 1, 64-0.25 μM) [µM] | IC50 (C. albicans B59630; repeat 2, 32-0.016 μM) [µM] | IC50 (S. aureus ATCC 6538; repeat 1, 64-0.25 μM) [µM] | MIC S. aureus ATCC 6538 (S. aureus ATCC 6538; repeat 1, 64-0.25 μM) [µM] | IC50 (S. aureus ATCC 6538; repeat 2, 32-0.016 μM) [µM] | MIC S. aureus ATCC 6538 (S. aureus ATCC 6538; repeat 2, 32-0.016 μM) | other results
ATCTNWNCRTQCIARGKRGGYCVERNICKCTS [Hill-Def3, Defensin without disulfide bridges] | > 64 | > 64.00 µM | > 3 | > 32.00 µM | > 64 | > 64.00 | > 32 | > 32.00 µM | > 64 | > 32 | > 64 | > 32 | > 64 | > 32 | > 64 | > 64.00 | > 32 | > 32.00 µM | 
LSCLFENQAVSAIACGASCITRKGKRGGWCSNGVCRCTPN [Hill-Def6, Defensin without disulfide bridges] | > 64 | > 64.00 µM | > 32 | > 32.00 µM | > 64 | > 64.00 | > 32 | > 32.00 µM | > 64 | > 32 | > 64 | > 32 | > 64 | > 32 | > 64 | > 64.00 | > 32 | > 32.00 µM | 
CC[C@H](C)[C@H](N)C(=O)N[C@@H](CCCCN)C(=O)N[C@@H](CS)C(=O)N[C@H](C(=O)N1CCC[C@H]1C(=O)N[C@@H](CO)C(=O)N[C@@H](CCC(N)=O)C(=O)N[C@@H](CS)C(=O)N[C@@H](CC(N)=O)C(=O)N[C@@H](CCC(N)=O)C(=O)N[C@H](C(=O)N[C@@H](CS)C(=O)N[C@@H](CCCNC(=N)N)C(=O)N[C@H](C(=O)N[C@@H](CC(C)C)C(=O)NCC(=O)N[C@@H](CCCCN)C(=O)N[C@@H](CCCCN)C(=O)N[C@@H](CS)C(=O)NCC(=O)N[C@@H](Cc1ccc(O)cc1)C(=O)N[C@@H](CS)C(=O)N[C@@H](CCCCN)C(=O)N[C@@H](CC(N)=O)C(=O)N[C@@H](C)C(=O)N[C@@H](CO)C(=O)N[C@H](C(=O)N[C@@H](CS)C(=O)N[C@H](C(=O)N[C@@H](CS)C(=O)N[C@@H](CC(C)C)C(N)=O)C(C)C)[C@@H](C)O)C(C)C)[C@@H](C)CC)C(C)C [Hill-Knot2] (H-IKCVPSQCNQICRVLGKKCGYCKNASTCVCL-NH2; N-terminus assumed) |  |  |  |  |  |  |  |  |  |  |  |  |  |  |  |  |  |  | IC50 [2]: < 32 µM
TTCDLISGTKIENIACAAHCIAMGHKGGYCNSNLICICR [Hill-Def7, Defensin without disulfide bridges] | > 64 | > 64.00 µM | > 32 | > 32.00 µM | > 64 | > 64.00 | > 32 | > 32.00 µM | > 64 | > 32 | > 64 | > 32 | > 64 | > 32 | > 64 | > 64.00 | > 32 | > 32.00 µM | 
FNNLPICVEGLAGDIGSILLGVESDIGALAGAIANLALIAGECAAQGEAGAAICA-NH2 (cysteines drawn unpaired) [Hill-Stom1] |  | > 32.00 µM |  | > 64.00 µM |  | > 32.00 |  | > 64.00 µM |  |  |  |  |  |  |  | > 64.00 |  | > 32.00 µM | IC50 [2]: < 32 µM
VTCDLLEPFLGPAPCMIHCIVRFRKRTGYCNSQNVCVCR [Hill-Def1, Defensin without disulfide bridges, C-terminal amidation] | > 64 | > 64.00 µM | > 32 | > 32.00 µM | > 64 | > 64.00 | > 32 | > 32.00 µM | > 64 | > 32 | > 64 | > 32 | > 64 | > 32 | > 64 | > 64.00 | > 32 | > 32.00 µM | 
DQSKEPFKPMERPYQRVRDAKIQGITIAQNGPNVLAITRGGLEQ [Hill-Cec6, Cecropin, C-terminal amidation] | > 64 | > 32.00 µM | > 32 |  | > 64 | > 32.00 | > 32 | > 64.00 µM | > 64 | > 32 | > 64 | > 32 | > 64 | > 32 | > 64 | > 64.00 | > 32 | > 32.00 µM | MBC P. aeruginosa ATCC 9027 (P. aeruginosa ATCC 9027; repeat 1): 16.00 µM; MBC P. aeruginosa ATCC 9027 (P. aeruginosa ATCC 9027; repeat 2): 2.00 µM; MBC E. coli ATCC 8739 (E. coli ATCC 8739; repeat 2, plated on MHA, ≥3 log reduction vs growth control): 2.00 µM
ATCDLLSPFKVGHAACAAHCIARGKRGGWCDKRAVCNCRK (also: bicyclic or more (positions not given here)) [Hill-Def2b, Defensin with disulfide bridges, counterpart of Hill-Def2a] | > 64 | > 32.00 µM and >64.00 µM | > 32 | > 64.00 µM and >32.00 µM | > 64 | > 32.00 | > 32 | > 64.00 µM and 64.00 µM | > 64 | > 32 | > 64 | > 32 | > 64 | > 32 | 8.5 | 64.00 | 13.5 | > 32.00 µM and 32.00 µM | concentration for 90% growth inhibition of S. aureus / activity against S. aureus (S. aureus ATCC 6538; library screening, both repeats): 32 µM and 64 µM; MBC S. aureus ATCC 6538 (S. aureus ATCC 6538; repeat 1): static; MBC S. aureus ATCC 6538 (S. aureus ATCC 6538; repeat 2): static
AMCDLLSGLNMGRSVCAMRCILKGHRGGWCDDQGVCNCRV [Hill-Def5, Defensin without disulfide bridges] | > 64 | > 64.00 µM | > 32 | > 32.00 µM | > 64 | > 64.00 | > 32 | > 32.00 µM | > 64 | > 32 | > 64 | > 32 | > 64 | > 32 | > 64 | > 64.00 | > 32 | > 32.00 µM | 
